Reference: ChEMBL document CHEMBL3870333, “Synthesis of Keap1-phosphorylated p62 and Keap1-Nrf2 protein-protein interaction inhibitors and their inhibitory activity” (Bioorg Med Chem Lett, 2016)
pIC50: −log10 of the molar value.

Key:
[1] = target: Sequestosome-1/Kelch-like ECH-associated protein 1 (Homo sapiens, UniProt Q14145); test: Inhibition of recombinant GST-His-tagged Keap1-DC domain (321 to 609 residues) (unknown origin) expressed in Escherichia coli/FAM-labeled phosphorylated p62 (unknown origin) interaction measured after 30 mins by fluorescence polarization assay
Sequence of Sequestosome-1/Kelch-like ECH-associated protein 1 (Q14145 whole entry, the tested form may be a part): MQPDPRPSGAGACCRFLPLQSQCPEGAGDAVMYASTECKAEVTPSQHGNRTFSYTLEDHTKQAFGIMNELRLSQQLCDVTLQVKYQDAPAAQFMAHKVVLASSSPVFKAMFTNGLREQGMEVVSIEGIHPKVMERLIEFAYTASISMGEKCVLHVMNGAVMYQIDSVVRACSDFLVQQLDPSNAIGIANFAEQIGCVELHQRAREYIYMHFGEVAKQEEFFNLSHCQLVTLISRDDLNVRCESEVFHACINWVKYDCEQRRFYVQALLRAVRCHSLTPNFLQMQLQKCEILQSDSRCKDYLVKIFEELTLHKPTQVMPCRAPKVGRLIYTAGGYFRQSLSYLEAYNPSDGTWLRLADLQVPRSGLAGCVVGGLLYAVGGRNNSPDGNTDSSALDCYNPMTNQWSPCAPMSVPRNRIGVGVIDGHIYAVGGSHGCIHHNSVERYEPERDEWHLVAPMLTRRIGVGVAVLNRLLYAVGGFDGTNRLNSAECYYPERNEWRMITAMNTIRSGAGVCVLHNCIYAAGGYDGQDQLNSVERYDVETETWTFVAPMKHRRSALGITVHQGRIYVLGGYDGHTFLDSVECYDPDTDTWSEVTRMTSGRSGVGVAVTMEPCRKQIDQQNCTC
Sequence of Sequestosome-1/Kelch-like ECH-associated protein 1 (Q13501 whole entry, further chain, the tested form may be a part): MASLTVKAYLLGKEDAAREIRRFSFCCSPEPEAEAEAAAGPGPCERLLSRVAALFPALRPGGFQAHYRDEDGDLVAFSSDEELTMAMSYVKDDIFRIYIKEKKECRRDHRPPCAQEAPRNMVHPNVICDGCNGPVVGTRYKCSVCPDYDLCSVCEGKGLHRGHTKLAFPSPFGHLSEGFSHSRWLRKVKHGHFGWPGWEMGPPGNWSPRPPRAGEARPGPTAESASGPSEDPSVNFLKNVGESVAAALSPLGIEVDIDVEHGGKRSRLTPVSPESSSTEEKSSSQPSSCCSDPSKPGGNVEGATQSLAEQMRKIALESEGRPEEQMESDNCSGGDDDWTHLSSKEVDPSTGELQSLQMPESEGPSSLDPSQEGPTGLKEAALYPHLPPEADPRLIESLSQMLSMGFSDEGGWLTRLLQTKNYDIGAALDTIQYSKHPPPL

Keap1/Nrf2 = Keap1/Nrf2 (Homo sapiens, UniProt Q14145); test: Inhibition of recombinant GST-His-tagged Keap1-DC domain (321 to 609 residues) (unknown origin) expressed in Escherichia coli/FAM-labeled Nrf2 (unknown origin) interaction measured after 30 mins by fluorescence polarization assay
Sequence of Keap1/Nrf2 (Q16236 whole entry, the tested form may be a part): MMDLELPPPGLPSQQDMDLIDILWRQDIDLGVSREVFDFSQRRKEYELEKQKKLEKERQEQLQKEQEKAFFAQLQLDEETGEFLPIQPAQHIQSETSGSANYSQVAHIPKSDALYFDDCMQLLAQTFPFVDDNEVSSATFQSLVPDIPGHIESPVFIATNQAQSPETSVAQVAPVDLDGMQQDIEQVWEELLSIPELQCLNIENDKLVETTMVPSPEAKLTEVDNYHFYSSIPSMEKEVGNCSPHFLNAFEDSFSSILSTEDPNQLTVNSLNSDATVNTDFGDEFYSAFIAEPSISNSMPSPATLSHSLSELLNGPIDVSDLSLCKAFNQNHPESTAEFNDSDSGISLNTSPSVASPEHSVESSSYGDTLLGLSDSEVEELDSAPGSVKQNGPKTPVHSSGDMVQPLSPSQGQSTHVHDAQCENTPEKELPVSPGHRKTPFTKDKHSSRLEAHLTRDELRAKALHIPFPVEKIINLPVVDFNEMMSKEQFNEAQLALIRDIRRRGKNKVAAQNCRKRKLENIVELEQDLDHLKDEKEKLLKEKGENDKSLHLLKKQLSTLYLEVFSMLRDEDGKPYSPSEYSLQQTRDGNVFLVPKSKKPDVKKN
Sequence of Keap1/Nrf2 (Q14145 whole entry, the tested form may be a part): as the sequence (Q14145 whole entry, the tested form may be a part) above

Homo sapiens = organism: Homo sapiens; test: Selectivity index, ratio of IC50 for recombinant GST-His-tagged Keap1-DC domain (321 to 609 residues) (unknown origin) expressed in Escherichia coli/FAM-labeled Nrf2 (unknown origin) interaction to IC50 for recombinant GST-His-tagged Keap1-DC domain (321 to 609 residues) (unknown origin) expressed in Escherichia coli/FAM-labeled phosphorylated p62 (unknown origin) interaction

`CCOc1ccc(S(=O)(=O)Nc2cc(CC(=O)O)c(NS(=O)(=O)c3ccc(OCC)cc3)c3ccccc23)cc1` was tested, and the pIC50 [1] was 6.64, the pIC50 (Keap1/Nrf2) was 6.49 and the Ratio IC50 (Homo sapiens) was 1.4.
For `CCOc1ccc(S(=O)(=O)Nc2cc(CCC(=O)O)c(NS(=O)(=O)c3ccc(OCC)cc3)c3ccccc23)cc1`, the pIC50 [1] was 6.72, the pIC50 (Keap1/Nrf2) was 6.64 and the Ratio IC50 (Homo sapiens) was 1.2.
`CCOc1ccc(S(=O)(=O)Nc2cc(CC(C)=O)c(NS(=O)(=O)c3ccc(OCC)cc3)c3ccccc23)cc1` gave a pIC50 [1] of 5.82, a pIC50 (Keap1/Nrf2) of 5.21 and a Ratio IC50 (Homo sapiens) of 4.1.
In the case of `CCOc1ccc(S(=O)(=O)Nc2cc(CCCC(=O)O)c(NS(=O)(=O)c3ccc(OCC)cc3)c3ccccc23)cc1`, the pIC50 (Keap1/Nrf2) was 6.82 and the Ratio IC50 (Homo sapiens) was 1.
With `CCOc1ccc(S(=O)(=O)Nc2ccc(NS(=O)(=O)c3ccc(OCC)cc3)c3ccccc23)cc1` the pIC50 [1] was 5.85, the pIC50 (Keap1/Nrf2) was 5.55 and the Ratio IC50 (Homo sapiens) was 2.
Work on `CCOc1ccc(S(=O)(=O)Nc2cc(SCC(=O)O)c(NS(=O)(=O)c3ccc(OCC)cc3)c3ccccc23)cc1` yielded a pIC50 [1] of 6.74, a pIC50 (Keap1/Nrf2) of 6.70 and a Ratio IC50 (Homo sapiens) of 1.1.
`CCOc1ccc(S(=O)(=O)Nc2cc(Sc3nc[nH]n3)c(NS(=O)(=O)c3ccc(OCC)cc3)c3ccccc23)cc1` showed a pIC50 [1] of 6.00, a pIC50 (Keap1/Nrf2) of 5.89 and a Ratio IC50 (Homo sapiens) of 1.3.
`CCOc1ccc(S(=O)(=O)Nc2cc(SCC(=O)OC)c(NS(=O)(=O)c3ccc(OCC)cc3)c3ccccc23)cc1` showed a pIC50 [1] of 6.43, a pIC50 (Keap1/Nrf2) of 6.14 and a Ratio IC50 (Homo sapiens) of 1.9.
`COc1ccc(S(=O)(=O)Nc2cc(CC(C)=O)c(NS(=O)(=O)c3ccc(OC)cc3)c3ccccc23)cc1` gave a pIC50 [1] of 5.62, a pIC50 (Keap1/Nrf2) of 5.49 and a Ratio IC50 (Homo sapiens) of 1.3.
